Assays:
Format in all cases: in vivo
[1] = tested on: Tetranychus urticae (Two-spotted spider mite); test: Tetranychus urticae (Two-spotted spider mite) mortality, sprayed bean leaf discs; details: foliar, 192 h, 200 ppm spray on bean leaf discs, mixed ages, egg, larval and adult mortality after 8 days
[2] = tested on: Thrips tabaci (Onion thrips); test: Thrips tabaci (Onion thrips) mortality, sprayed sunflower leaf discs; details: foliar, 168 h, 200 ppm spray on sunflower leaf discs, mixed ages, mortality after 7 days
[3] = tested on: Plutella xylostella (Diamond back moth); test: Plutella xylostella (Diamond back moth) larval mortality, artificial diet in 24-well MTP; details: 144 h, application rate 200 ppm (concentration in well 18 ppm), L2 larvae, larval mortality after 6 days
[4] = tested on: Myzus persicae (Green peach aphid); test: Myzus persicae (Green peach aphid) mortality, sprayed sunflower leaf discs; details: foliar, 144 h, 200 ppm spray on sunflower leaf discs, mixed ages, mortality 6 DAT
[5] = tested on: Spodoptera littoralis (Egyptian cotton leafworm); test: Spodoptera littoralis (Egyptian cotton leafworm) mortality, sprayed cotton leaf discs; details: foliar, 72 h, 200 ppm spray on cotton leaf discs, L1 larvae, mortality 3 DAT
[6] = tested on: Diabrotica balteata (Corn root worm); test: Diabrotica balteata (Corn root worm) larval mortality, artificial diet in 24-well MTP; details: 120 h, application rate 200 ppm (concentration in well 18 ppm), L2 larvae, larval mortality after 5 days
[7] = tested on: Myzus persicae (Green peach aphid); test: Myzus persicae (Green peach aphid) mortality, test compounds mixed with Sucrose solution under Parafilm; details: 120 h, 12.5 ppm in Sucrose solution, infested pea seedlings on Parafilm, mortality 5 days after infestation

O=C(Nc1cccc(C(=O)Nc2c(Br)cc(C(F)(C(F)(F)F)C(F)(F)F)cc2OC(F)F)c1F)c1ccncc1 [Compound 1]
≥ 80%: pest or weed control at 200 ppm [1] | pest or weed control at 200 ppm [2] | pest or weed control at 200 ppm [3] | pest or weed control at 200 ppm [4] | pest or weed control at 200 ppm [5] | pest or weed control at 200 ppm [6] | pest or weed control at 12.5 ppm [7]

CCN(C(=O)c1ccncc1)c1cccc(C(=O)Nc2c(Br)cc(C(F)(C(F)(F)F)C(F)(F)F)cc2OC(F)F)c1F [Compound 2, N-[3-[[2-bromo-6-(difluoromethoxy)-4-[1,2,2,2-tetrafluoro-1-(trifluoromethyl)ethyl]phenyl]carbamoyl]-2-fluoro-phenyl]-N-ethyl-pyridine-4-carboxamide]
≥ 80%: pest or weed control at 200 ppm [1] | pest or weed control at 200 ppm [2] | pest or weed control at 200 ppm [3] | pest or weed control at 200 ppm [4] | pest or weed control at 200 ppm [5] | pest or weed control at 200 ppm [6] | pest or weed control at 12.5 ppm [7]

COc1c(NC(=O)c2ccccc2C)cccc1C(=O)Nc1c(Br)cc(C(F)(C(F)(F)F)C(F)(F)F)cc1OC(F)F [Compound 35]
≥ 80%: pest or weed control at 200 ppm [1] | pest or weed control at 200 ppm [2] | pest or weed control at 200 ppm [3] | pest or weed control at 200 ppm [4] | pest or weed control at 200 ppm [5] | pest or weed control at 200 ppm [6]

COc1c(NC(=O)c2ccccc2Cl)cccc1C(=O)Nc1c(Br)cc(C(F)(C(F)(F)F)C(F)(F)F)cc1OC(F)F [Compound 37]
≥ 80%: pest or weed control at 200 ppm [1] | pest or weed control at 200 ppm [2] | pest or weed control at 200 ppm [3] | pest or weed control at 200 ppm [4] | pest or weed control at 200 ppm [5] | pest or weed control at 200 ppm [6]

COc1c(NC(=O)c2ccc(F)cc2C)cccc1C(=O)Nc1c(Br)cc(C(F)(C(F)(F)F)C(F)(F)F)cc1OC(F)F [Compound 43]
≥ 80%: pest or weed control at 200 ppm [1] | pest or weed control at 200 ppm [2] | pest or weed control at 200 ppm [3] | pest or weed control at 200 ppm [4] | pest or weed control at 200 ppm [5] | pest or weed control at 200 ppm [6]

O=C(Nc1cccc(C(=O)Nc2c(Cl)cc(C(F)(C(F)(F)F)C(F)(F)F)cc2OC(F)F)c1F)c1ccccc1Cl [Compound 48]
≥ 80%: pest or weed control at 200 ppm [1] | pest or weed control at 200 ppm [2] | pest or weed control at 200 ppm [3] | pest or weed control at 200 ppm [4] | pest or weed control at 200 ppm [5] | pest or weed control at 200 ppm [6]

O=C(Nc1cccc(C(=O)Nc2c(Cl)cc(C(F)(C(F)(F)F)C(F)(F)F)cc2OC(F)F)c1F)c1ccc(F)c(C(F)(F)F)c1 [Compound 62]
≥ 80%: pest or weed control at 200 ppm [1] | pest or weed control at 200 ppm [3] | pest or weed control at 200 ppm [5] | pest or weed control at 200 ppm [6] | pest or weed control at 12.5 ppm [7]

COc1c(NC(=O)c2ccc(F)cc2F)cccc1C(=O)Nc1c(Br)cc(C(F)(C(F)(F)F)C(F)(F)F)cc1OC(F)F [Compound 71]
≥ 80%: pest or weed control at 200 ppm [1] | pest or weed control at 200 ppm [2] | pest or weed control at 200 ppm [3] | pest or weed control at 200 ppm [4] | pest or weed control at 200 ppm [5] | pest or weed control at 200 ppm [6]

O=C(Nc1cccc(C(=O)Nc2c(Cl)cc(C(F)(C(F)(F)F)C(F)(F)F)cc2OC(F)F)c1F)c1ccc(F)cc1Cl [Compound 74]
≥ 80%: pest or weed control at 200 ppm [1] | pest or weed control at 200 ppm [2] | pest or weed control at 200 ppm [3] | pest or weed control at 200 ppm [5] | pest or weed control at 200 ppm [6] | pest or weed control at 12.5 ppm [7]

COc1c(NC(=O)c2ccccc2Cl)cccc1C(=O)Nc1c(Cl)cc(C(F)(C(F)(F)F)C(F)(F)F)cc1OC(F)F [Compound 79]
≥ 80%: pest or weed control at 200 ppm [1] | pest or weed control at 200 ppm [2] | pest or weed control at 200 ppm [3] | pest or weed control at 200 ppm [4] | pest or weed control at 200 ppm [5] | pest or weed control at 200 ppm [6]

COc1c(NC(=O)c2ccc(OC(F)(F)F)cc2)cccc1C(=O)Nc1c(Cl)cc(C(F)(C(F)(F)F)C(F)(F)F)cc1OC(F)F [Compound 87]
≥ 80%: pest or weed control at 200 ppm [1] | pest or weed control at 200 ppm [2] | pest or weed control at 200 ppm [3] | pest or weed control at 200 ppm [5] | pest or weed control at 200 ppm [6]

COc1c(NC(=O)c2ccccc2)cccc1C(=O)Nc1c(Cl)cc(C(F)(C(F)(F)F)C(F)(F)F)cc1OC(F)F [Compound 92]
≥ 80%: pest or weed control at 200 ppm [1] | pest or weed control at 200 ppm [2] | pest or weed control at 200 ppm [3] | pest or weed control at 200 ppm [4] | pest or weed control at 200 ppm [5] | pest or weed control at 200 ppm [6]

COc1c(NC(=O)c2ccccc2C(F)(F)F)cccc1C(=O)Nc1c(Cl)cc(C(F)(C(F)(F)F)C(F)(F)F)cc1OC(F)F [Compound 94]
≥ 80%: pest or weed control at 200 ppm [1] | pest or weed control at 200 ppm [2] | pest or weed control at 200 ppm [3] | pest or weed control at 200 ppm [4] | pest or weed control at 200 ppm [5] | pest or weed control at 200 ppm [6]

COc1c(NC(=O)c2ccc(F)cc2Cl)cccc1C(=O)Nc1c(Cl)cc(C(F)(C(F)(F)F)C(F)(F)F)cc1OC(F)F [Compound 95]
≥ 80%: pest or weed control at 200 ppm [1] | pest or weed control at 200 ppm [2] | pest or weed control at 200 ppm [3] | pest or weed control at 200 ppm [4] | pest or weed control at 200 ppm [5] | pest or weed control at 200 ppm [6]

COc1c(NC(=O)c2ccc(F)cc2F)cccc1C(=O)Nc1c(Cl)cc(C(F)(C(F)(F)F)C(F)(F)F)cc1OC(F)F [Compound 97]
≥ 80%: pest or weed control at 200 ppm [1] | pest or weed control at 200 ppm [2] | pest or weed control at 200 ppm [3] | pest or weed control at 200 ppm [4] | pest or weed control at 200 ppm [5]

CCN(C(=O)c1ccccc1Cl)c1cccc(C(=O)Nc2c(Cl)cc(C(F)(C(F)(F)F)C(F)(F)F)cc2OC(F)F)c1F [Compound 112]
≥ 80%: pest or weed control at 200 ppm [1] | pest or weed control at 200 ppm [2] | pest or weed control at 200 ppm [3] | pest or weed control at 200 ppm [4] | pest or weed control at 200 ppm [5] | pest or weed control at 200 ppm [6]

CCN(C(=O)c1ccccc1F)c1cccc(C(=O)Nc2c(Br)cc(C(F)(C(F)(F)F)C(F)(F)F)cc2OC(F)F)c1OC [Compound 129]
≥ 80%: pest or weed control at 200 ppm [1] | pest or weed control at 200 ppm [2] | pest or weed control at 200 ppm [3] | pest or weed control at 200 ppm [5] | pest or weed control at 200 ppm [6]

CCN(C(=O)c1ccc(F)cc1C)c1cccc(C(=O)Nc2c(Br)cc(C(F)(C(F)(F)F)C(F)(F)F)cc2OC(F)F)c1OC [Compound 133]
≥ 80%: pest or weed control at 200 ppm [1] | pest or weed control at 200 ppm [2] | pest or weed control at 200 ppm [3] | pest or weed control at 200 ppm [5] | pest or weed control at 200 ppm [6]

CCN(C(=O)c1ccc([N+](=O)[O-])cc1Cl)c1cccc(C(=O)Nc2c(Cl)cc(C(F)(C(F)(F)F)C(F)(F)F)cc2OC(F)F)c1OC [Compound 152]
≥ 80%: pest or weed control at 200 ppm [1] | pest or weed control at 200 ppm [2] | pest or weed control at 200 ppm [3] | pest or weed control at 200 ppm [5] | pest or weed control at 200 ppm [6] | pest or weed control at 12.5 ppm [7]

CCN(C(=O)c1ccccc1OC)c1cccc(C(=O)Nc2c(Cl)cc(C(F)(C(F)(F)F)C(F)(F)F)cc2OC(F)F)c1OC [Compound 154]
≥ 80%: pest or weed control at 200 ppm [1] | pest or weed control at 200 ppm [2] | pest or weed control at 200 ppm [3] | pest or weed control at 200 ppm [5] | pest or weed control at 200 ppm [6]

Reference: US11445724B2, “Insecticidal compounds” (SYNGENTA PARTICIPATIONS AG, priority 2013, dated 2022)
